One experiment has as its target T1, kinase Axl (Homo sapiens, UniProt P30530).
T1 construct: purchased Carna 08-107
T1 sequence (P30530 473-894 limits assumed): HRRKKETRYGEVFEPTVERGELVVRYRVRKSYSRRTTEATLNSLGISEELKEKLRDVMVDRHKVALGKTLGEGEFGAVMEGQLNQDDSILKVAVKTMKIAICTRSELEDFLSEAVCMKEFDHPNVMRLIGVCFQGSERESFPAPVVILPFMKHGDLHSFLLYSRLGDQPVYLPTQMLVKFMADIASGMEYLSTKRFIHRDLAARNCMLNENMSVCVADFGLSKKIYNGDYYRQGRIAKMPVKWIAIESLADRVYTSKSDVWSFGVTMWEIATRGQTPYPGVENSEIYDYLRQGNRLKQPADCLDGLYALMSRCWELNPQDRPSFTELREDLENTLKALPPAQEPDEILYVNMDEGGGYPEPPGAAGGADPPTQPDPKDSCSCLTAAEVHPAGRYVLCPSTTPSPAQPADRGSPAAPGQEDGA
Description: Mobility shift assay, inhibitory activity against kinase Axl. Format: biochemical. Particulars: ATP at Km (81 μM), average of two independent experiments. As for the experimental part:
(§1) In this test, mobility shift assay was used to test the inhibitory activity of compounds when ATP concentrations correspond to the Km of the kinases.
(§2) The concentration of test compound was 10-fold diluted from an initial concentration of 10 μM. The test result (IC50) was the average of two independent experiments.
(§3) For example, a compound at an initial concentration of 10 μM was adjusted to 500 μM with 100% DMSO, then serially diluted for 10 concentrations, and then subjected to 10-fold dilution with the buffer to prepare a diluted compound intermediate containing 10% DMSO, 5 μL of which was transferred to the 384-well plate.
(§4) 10 μL of the two enzyme solutions each was added to the 384-well plate and co-incubated with the compound for 10-15 min at room temperature.
(§5) 10 μL of the diluted substrate was added to the 384-well plate to initiate the reaction, which lasts for 1 h at 28° C.
(§6) 5) The conversion rate was read by Caliper Reader (Perkin Elmer) and the inhibition rate was calculated as the average of two tests.
(§7) 6) IC50 values were fitted with XL-fit software.

In the next experiment the target is T2, kinase c-MET (Homo sapiens, UniProt P08581).
T2 construct: purchased Carna 08-151
T2 sequence (P08581 956-1390 limits assumed): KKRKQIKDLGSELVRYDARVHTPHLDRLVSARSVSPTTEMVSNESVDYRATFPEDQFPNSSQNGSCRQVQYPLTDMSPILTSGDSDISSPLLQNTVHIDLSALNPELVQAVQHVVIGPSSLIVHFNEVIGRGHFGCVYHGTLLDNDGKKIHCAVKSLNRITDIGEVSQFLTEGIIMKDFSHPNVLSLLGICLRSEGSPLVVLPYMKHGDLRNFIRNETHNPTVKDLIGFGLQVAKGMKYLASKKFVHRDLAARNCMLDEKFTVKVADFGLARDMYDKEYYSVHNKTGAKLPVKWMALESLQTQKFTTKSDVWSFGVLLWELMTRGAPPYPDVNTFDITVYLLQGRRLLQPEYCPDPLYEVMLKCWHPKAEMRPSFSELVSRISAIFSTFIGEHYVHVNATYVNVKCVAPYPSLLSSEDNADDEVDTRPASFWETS
Description: Mobility shift assay, inhibitory activity against kinase c-MET. Particulars: ATP at Km (35 μM), average of two independent experiments. Format: biochemical. As for the experimental part: as §1, §2, §3, §4, §5, §6, §7

Structures are written as SMILES.

The term IC50 denotes the concentration at which inhibition is half-maximal. For the molecule `N#Cc1c(-c2ccc(F)cc2)c(=O)c(C(=O)Nc2ccc(-c3cc(-c4cnn(C5CCNCC5)c4)cnc3N)c(F)c2)cn1C1CCC1` [Example 8, N-(4-(2-amino-5-(1-(piperidin-4-yl)-1H-pyrazol-4-yl)pyridin-3-yl)-3-fluorophenyl)-6-cyano-5-(4-fluorophenyl)-1-cyclobutyl-4-oxo-1,4-dihydropyridine-3-carboxamide], the IC50 came to 1.1 nM at kinase Axl and 17 nM on kinase c-MET.
The matching figures for `C=C(C)c1cc(C(=O)Nc2ccc(-c3cc(-c4cnn(C5CCNCC5)c4)cnc3N)c(F)c2)c(=O)n(-c2ccc(F)cc2)c1C#N` [Example 17, N-(4-(2-amino-5-(1-(piperidin-4-yl)-1H-pyrazol-4-yl)pyridin-3-yl)-3-fluorophenyl)-6-cyano-1-(4-fluorophenyl)-2-oxo-5-(prop-1-en-2-yl)-1,2-dihydropyridine-3-carboxamide]: 1.8 nM and 23 nM.
The matching figures for `COCc1c(C)cc(C(=O)Nc2ccc(Oc3ccnc4cc(OC)c(OC)cc34)c(F)c2)c(=O)n1-c1ccc(F)cc1` [Example 28, 5-methyl-N-(4-((6,7-dimethoxyquinolin-4-yl)oxy)-3-fluoro-phenyl)-1-(4-fluorophenyl)-6-(methoxymethyl)-2-oxo-1,2-dihydropyridine-3-carboxamide]: 1 nM and 21 nM.
As to `N#Cc1c(C2CC2)cc(C(=O)Nc2ccc(-c3cc(-c4cnn(C5CCOCC5)c4)cnc3N)c(F)c2)c(=O)n1-c1ccc(F)cc1` [Example 16, N-(4-(2-amino-5-(1-(tetrahydro-2H-pyran-4-yl)-1H-pyrazol-4-yl)pyridin-3-yl)-3-fluorophenyl)-6-cyano-5-cyclopropyl-1-(4-fluorophenyl)-2-oxo-1,2-dihydro-pyridine-3-carboxamide], the half-maximal inhibitory concentration (IC50) at kinase Axl turned out to be 9.8 nM; on kinase c-MET, 143 nM.
On the same counts, the results for `CC(C)n1cc(C(=O)Nc2ccc(-c3cc(-c4cnn(C5CCOCC5)c4)cnc3N)c(F)c2)c(=O)c(-c2ccc(F)cc2)c1C#N` [Example 5, N-(4-(2-amino-5-(1-(tetrahydro-2H-pyran-4-yl)-1H-pyrazol-4-yl)-pyridin-3-yl)-3-fluorophenyl)-6-cyano-5-(4-fluorophenyl)-1-isopropyl-4-oxo-1,4-dihydro-pyridine-3-carboxamide] are 2.6 nM and 38 nM.
Consider `CCn1cc(-c2cnc(N)c(-c3ccc(NC(=O)c4cc(C5CC5)c(C#N)n(-c5ccc(F)cc5)c4=O)cc3F)c2)cn1` [Example 14, N-(4-(2-amino-5-(1-ethyl-1H-pyrazol-4-yl)pyridin-3-yl)-3-fluorophenyl)-6-cyano-5-cyclopropyl-1-(4-fluorophenyl)-2-oxo-1,2-dihydropyridine-3-carboxamide], for which the 50% inhibitory concentration (IC50) at kinase Axl was found to be 12 nM; at kinase c-MET, 82 nM.
On the same counts, the results for `COc1cc2nccc(Oc3ccc(NC(=O)c4cc(Br)c(O)n(-c5ccc(F)cc5)c4=O)cc3F)c2cc1OC` [Example 29B, 5-bromo-N-(4-((6,7-dimethoxyquinolin-4-yl)oxy)-3-fluorophenyl)-1-(4-fluorophenyl)-6-hydroxy-2-oxo-1,2-dihydropyridine-3-carboxamide] are 3.9 nM and 30 nM.

The record behind these values is patent US20210355107A1, “MULTI-SUBSTITUTED PYRIDONE DERIVATIVES AND MEDICAL USE THEREOF” (Beijing Yuezhikangtai Biomedicines Co., Ltd., priority 2018, published 2021).
